Read-outs that look alike come from different tables or passages of the source.
Columns and labels:
[1] = tested on: VX2 tumor bearing rabbits, metastatic iliacal lymph nodes; assay: MR imaging of lymph node metastases in VX2 tumor rabbit model after intravenous injection; format: in vivo, New Zealand White rabbits; settings: for delineation / differentiation of functional and metastatic lymph node tissue: i.v., MS-325 0.05 mmol Gd/kg, Gd-DTPA 0.2 mmol Gd/kg, intraindividual comparison
Procedure: New Zealand White rabbits (3-4 kg, n=6) were inoculated intramuscularly into the thigh with 2 to 3 pieces (1×1 mm) of VX2 carcinoma cells to produce metastases in […] nodes. The imaging experiments were performed 3 to 6 weeks after the injection of tumor cells. […] Contrast agents: […] Imaging: Intraindividual comparison of lymphographic effects in […] nodes. day 1: Gd-DTPA (5 to 120 minutes p.i.). day 2: […] Assessment of technical success and quality of MR imaging, and detection of lymph node metastases. Histology: Microscopic examination after H/E staining; correlation with MR findings.

[2] = tested on: guinea pigs with stimulated (enlarged) popliteal lymph nodes; settings: for ratio of signal intensity lymph node to muscle / % signal enhancement popliteal lymph node: 0.05 mmol/kg i.v. bolus; for % signal enhancement popliteal lymph node: T1-weighted MR 1.5 T
Procedure: Female guinea pigs (370-450 g, n=3) had their lymph nodes stimulated by egg yolk emulsion (0.1 mL) intramuscularly in the thigh and lower legs on six days. MS-325 (0.05 mmol/kg) was administered as an i.v. bolus
MR system: Head scanner (Allegra, 1.5 Tesla; Siemens AG, Erlangen, Germany), T1-weighted sequence (T1-TSE, TR/TE 666/12 ms, slice thickness 1.1 mm, acquisition time 3:49).
Imaging and analysis: The animals were imaged prior to contrast agent administration and 1, 15, 30, 60, 90, 120, and […] post injection. The percent signal intensity enhancement was calculated in the popliteal lymph nodes and in surrounding muscle. The ratio of signal intensity between the lymph node and the surrounding muscle was also determined.

[3] = 0 min post injection (prior to contrast agent)
[4] = 5 to 15 min after intravenous injection, 0.05 mmol Gd/kg body weight

Question: For `O=C([O-])CN(CCN(CC(=O)[O-])CC(=O)O)CCN(CC(=O)[O-])CC(=O)O.[Gd+3]` [Gd-DTPA, reference compound], which “enhancement in the whole lymph node” value ([1]; after intravenous injection, 0.2 mmol Gd/kg, T1-weighted MR) is on record?
Answer: only a slight and inhomogeneous enhancement

Question: And the “delineation / differentiation of functional and metastatic lymph node tissue” value [1]?
Answer: does not allow an effective differentiation

Question: For `O=C([O-])CN(CCN(CC(=O)[O-])C[C@H](COP(=O)([O-])OC1CCC(c2ccccc2)(c2ccccc2)CC1)N(CC(=O)[O-])CC(=O)[O-])CC(=O)[O-].[Gd+3].[H+].[H+].[H+]` [MS-325], which “ratio of signal intensity lymph node to muscle” value (shortened to “ratio”) [2, 3] is on record?
Answer: 1.2 ± 0.1

Question: What about the “% signal enhancement popliteal lymph node” value [2, 3] of the same compound?
Answer: 0 ± 0%

Question: And the “ratio” value ([2]; 1 min post injection)?
Answer: 1.6 ± 0.1

Question: And the “% signal enhancement popliteal lymph node” value ([2]; 1 min post injection)?
Answer: 87 ± 11%

Question: And the “ratio” value ([2]; 15 min post injection)?
Answer: 1.4 ± 0.1

Question: And the “% signal enhancement popliteal lymph node” value ([2]; 15 min post injection)?
Answer: 67 ± 11%

Question: And the “ratio” value ([2]; 30 min post injection)?
Answer: 1.4 ± 0.1

Question: What about the “% signal enhancement popliteal lymph node” value ([2]; 30 min post injection) of the same compound?
Answer: 57 ± 6%

Question: What about the “ratio” value ([2]; 60 min post injection) of the same compound?
Answer: 1.3 ± 0.1

Question: And the “% signal enhancement popliteal lymph node” value ([2]; 60 min post injection)?
Answer: 45 ± 6%

Question: And the “ratio” value ([2]; 90 min post injection)?
Answer: 1.3 ± 0.1

Question: And the “% signal enhancement popliteal lymph node” value ([2]; 90 min post injection)?
Answer: 37 ± 4%

Question: What about the “ratio” value ([2]; 120 min post injection) of the same compound?
Answer: 1.3 ± 0.1

Question: And the “% signal enhancement popliteal lymph node” value ([2]; 120 min post injection)?
Answer: 31 ± 6%

Question: And the “ratio” value ([2]; 2440 min post injection)?
Answer: 1.1 ± 0.2

Question: What about the “% signal enhancement popliteal lymph node” value ([2]; 2440 min post injection) of the same compound?
Answer: −8 ± 14%

Question: What about the “signal and contrast after 24 hours” value ([2]; after 24 hours, 0.05 mmol/kg) of the same compound?
Answer: returned to baseline levels

Question: What about the “contrast between the lymph node and the surrounding muscle” value ([2]; after injection, 0.05 mmol/kg) of the same compound?
Answer: increased

Question: What about the “enhancement of stimulated (enlarged) lymph nodes” value ([2]; after injection, 0.05 mmol/kg) of the same compound?
Answer: positive and persistent enhancement

Question: And the “appearance of the metastases (FIGS. 1 and 2, coronal MR images)” value [1, 4]?
Answer: remains dark

Question: What about the “enhancement in the functional lymph node tissue (FIGS. 1 and 2, coronal MR images)” value [1, 4] of the same compound?
Answer: bright and homogeneous enhancement

Question: What about the “enhancement of the metastatic tissue” value ([1]; after intravenous injection, 0.05 mmol Gd/kg, T1-weighted MR) of the same compound?
Answer: only a slight enhancement

Question: And the “signal increase in the functional lymph node tissue” value ([1]; between 5 and 30 min after intravenous injection, 0.05 mmol Gd/kg, T1-weighted MR)?
Answer: rapid and strong signal increase

Question: And the “delineation / differentiation of functional and metastatic lymph node tissue” value [1]?
Answer: excellent delineation of the lymph node metastases

— patent publication US20080044358A1, “METHODS FOR LYMPH SYSTEM IMAGING” (priority 2006, published 2008)
